Test results: US7879911B2 (priority 2007, dated 2011)

Target: Lethal factor protease (Bacillus anthracis, UniProt P15917)
Assay: biochemical
Conditions: LF (FRET) Ki^app

Sequence of Lethal factor protease (P15917 34-809 limits assumed): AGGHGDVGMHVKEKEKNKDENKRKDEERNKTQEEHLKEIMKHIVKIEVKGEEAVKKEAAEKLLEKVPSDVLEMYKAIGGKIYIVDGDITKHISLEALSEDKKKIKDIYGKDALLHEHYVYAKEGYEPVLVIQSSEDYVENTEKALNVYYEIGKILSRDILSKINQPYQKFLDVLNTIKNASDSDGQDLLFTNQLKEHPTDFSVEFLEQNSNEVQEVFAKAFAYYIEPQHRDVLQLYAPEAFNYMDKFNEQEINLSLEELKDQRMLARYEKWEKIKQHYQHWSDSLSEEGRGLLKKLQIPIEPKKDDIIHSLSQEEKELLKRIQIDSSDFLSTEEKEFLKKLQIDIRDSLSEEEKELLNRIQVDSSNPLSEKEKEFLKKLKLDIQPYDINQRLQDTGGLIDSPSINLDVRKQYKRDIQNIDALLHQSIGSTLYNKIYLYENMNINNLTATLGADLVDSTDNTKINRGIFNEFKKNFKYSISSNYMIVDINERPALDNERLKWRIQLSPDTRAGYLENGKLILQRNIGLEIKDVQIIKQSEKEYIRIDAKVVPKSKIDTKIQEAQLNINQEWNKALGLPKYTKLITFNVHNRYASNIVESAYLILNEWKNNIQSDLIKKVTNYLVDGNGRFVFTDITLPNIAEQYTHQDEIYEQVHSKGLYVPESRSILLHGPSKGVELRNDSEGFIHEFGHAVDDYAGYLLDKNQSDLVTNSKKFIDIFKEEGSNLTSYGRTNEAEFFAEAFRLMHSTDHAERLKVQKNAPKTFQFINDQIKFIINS

SMILES	Ki [nM]
CCCCC(C(=O)NO)[S+]([O-])c1ccc(F)c(C)c1 (single isomer, unassigned) [Compound 167351, syn-2-(4-Fluoro-3-methyl-benzenesulfinyl)-hexanoic acid hydroxyamide]	10300
CCCCC(C(=O)NO)[S+]([O-])c1ccc(F)c(C)c1 (single isomer, unassigned) [Compound 167352, anti-2-(4-Fluoro-3-methyl-benzenesulfinyl)-hexanoic acid hydroxyamide]	67000
CCCCC(Oc1ccc(F)c(C)c1)C(=O)NO (stereo not shown) [Compound 167163, 2-(4-Fluoro-3-methyl-phenoxy)-hexanoic acid hydroxyamide]	5500
Cc1cc(OCC(=O)NO)ccc1F [Compound 167182, 2-(4-Fluoro-3-methyl-phenoxy)-N-hydroxy-acetamide]	29200
CCCCC(Sc1ccc(F)c(C)c1)C(=O)NO (stereo not shown) [Compound 167303, 2-(4-Fluoro-3-methyl-phenylsulfanyl)-hexanoic acid hydroxyamide]	2500
CCCCC(C(=O)NO)S(=O)(=O)c1ccc(F)c(C)c1 (stereo not shown) [Compound 167304, 2-(4-Fluoro-3-methyl-benzenesulfonyl)-hexanoic acid hydroxyamide]	30000
CCCCC(C(=O)NO)[S+]([O-])c1ccc(F)c(C)c1 (stereo not shown) [Compound 167316, 2-(4-Fluoro-3-methyl-benzenesulfinyl)-hexanoic acid hydroxyamide]	18000
CCC[C@@H](Oc1ccc(F)c(C)c1)C(=O)NO [Compound 168090, (R)-2-(4-Fluoro-3-methyl-phenoxy)-pentanoic acid hydroxyamide]	3700
Cc1cc(O[C@H](CCO)C(=O)NO)ccc1F [Compound 168093, (R)-2-(4-fluoro-3-methylphenoxy)-N,4-dihydroxybutanamide]	23100
Cc1cc(CNCCCC[C@@H](Oc2ccc(F)c(C)c2)C(=O)NO)ccc1F [Compound 168097, (R)-6-(4-Fluoro-3-methylbenzylamino)-2-(4-fluoro-3-methylphenoxy)-N-hydroxyhexanamide]	210
Cc1cc(CNCCCC[C@@H](Oc2cc(C)c(F)c(C)c2)C(=O)NO)ccc1F [Compound 168100, (R)-2-(4-fluoro-3,5-dimethylphenoxy)-6-(4-fluoro-3-methylbenzylamino)-N-hydroxyhexanamide]	580
Cc1cc(COCCCC[C@@H](Oc2ccc(F)c(C)c2)C(=O)NO)ccc1F [Compound 168113, (R)-6-(4-Fluoro-3-methylbenzyloxy)-2-(4-fluoro-3-methylphenoxy)-N-hydroxyhexanamide]	540
Cc1cc(OCC(=O)NO)cc(C)c1F [Compound 168115, 2-(4-Fluoro-3,5-dimethyl-phenoxy)-N-hydroxy-acetamide]	2520
O=C(COc1ccc(F)c(Cl)c1)NO [Compound 168127, 2-(3-chloro-4-fluorophenoxy)-N-hydroxyacetamide]	31200
O=C(COc1ccc(F)cc1)NO [Compound 168128, 2-(4-fluorophenoxy)-N-hydroxyacetamide]	61100
O=C(COc1ccc(Cl)cc1)NO [Compound 168129, 2-(4-chlorophenoxy)-N-hydroxyacetamide]	83900
O=C(COc1ccc(F)c(F)c1)NO [Compound 168130, 2-(3,4-difluorophenoxy)-N-hydroxyacetamide]	26200
Cc1cc(COCCCC[C@@H](Oc2cc(C)c(F)c(C)c2)C(=O)NO)ccc1F [Compound 168135, (R)-2-(4-fluoro-3,5-dimethylphenoxy)-6-(4-fluoro-3-methylbenzyloxy)-N-hydroxyhexanamide]	3030
Cc1cc(CCCN(C)CC[C@@H](Oc2ccc(F)c(C)c2)C(=O)NO)ccc1F [Compound 168142, (R)-2-(4-fluoro-3-methylphenoxy)-4-((3-(4-fluoro-3-methylphenyl)propyl)(methyl)amino)-N-hydroxybutanamide]	1120
Cc1cc(O[C@H](CCN2CCC[C@@H](CN3CCCCC3)C2)C(=O)NO)ccc1F [Compound 168143, (R)-2-(4-fluoro-3-methylphenoxy)-N-hydroxy-4-((S)-3-(piperidin-1-ylmethyl)piperidin-1-yl)butanamide]	1670
O=C(NO)[C@@H](C/C=C\COCc1ccccc1)Oc1ccc(F)c(Cl)c1 [Compound 168160, (R,Z)-6-(benzyloxy)-2-(3-chloro-4-fluorophenoxy)-N-hydroxyhex-4-enamide]	1250
Cc1cc(O[C@H](CCCCO)C(=O)NO)ccc1F [Compound 168176, (R)-2-(4-fluoro-3-methylphenoxy)-N,6-dihydroxyhexanamide]	1780
Cc1cc(O[C@H](CCCCNCc2cccs2)C(=O)NO)ccc1F [Compound 168177, (R)-2-(4-fluoro-3-methylphenoxy)-N-hydroxy-6-(thiophen-2-ylmethylamino)hexanamide]	210
Cc1cc(O[C@H](CCCCNCc2cccc(-c3ccc(F)cc3)c2)C(=O)NO)ccc1F [Compound 168178, (R)-2-(4-fluoro-3-methylphenoxy)-6-((4′-fluorobiphenyl-3-yl)methylamino)-N-hydroxyhexanamide]	130
Cc1cc(O[C@H](CCCCNCC2CC3CCC2C3)C(=O)NO)ccc1F (stereo partly shown) [Compound 168183]	170
Cc1cc(O[C@H](CCCCNCc2ccco2)C(=O)NO)ccc1F [Compound 168184]	750
Cc1cc(O[C@H](C/C=C/COCc2ccccc2)C(=O)NO)ccc1F [Compound 168185]	770
O=C(NO)[C@@H](CCCCOCc1ccccc1)Oc1ccc(F)c(Cl)c1 [Compound 168187]	1070
